Test results taken from US4070470A, “Platelet aggregation inhibiting carbostyrils, their compositions and method of use” (Otsuka Pharmaceutical Co., Ltd., priority 1974, dated 1978).

Assays:
[1] = test system: blood platelets; conditions: at low concentrations; cited from earlier work
[2] = test system: thrombosis; conditions: administered orally or intravenously to mammals including humans; cited from earlier work
[3] = test system: collagen-induced aggregation in rabbit platelet; assay: Inhibition effect on collagen-induced aggregation in rabbit platelet; assay type: cell-based; conditions: rabbit platelet (PRP); for inhibition at 100 µM / inhibition at 10 µM / inhibition at 1 µM / inhibition at 0.01 µM: Oryctolagus cuniculus, Platelet; for inhibition at 100 µM: 10^-4 M test compound solution; for inhibition at 0.01 µM: 10^-8 M test compound solution
Description: (§1) The aggregation inhibitory activity was determined using an AG-II type aggregometer (made by Bryston Manufacturing Co.). A blood sample was withdrawn from rabbits as a mixture of sodium citrate and whole blood in a proportion of 1 : 9 by volume and centrifuged at 1000 rpm for 10 minutes to obtain a platelet rich plasma (PRP). The resulting PRP was separated, and the remaining blood sample was further centrifuged at 3000 rpm for 15 minutes to obtain a platelet poor plasma (PPP).
(§2) The number of platelets in the PRP was counted in accordance with the Brecher-Clonkite Method, and the PRP was diluted with the PPP to prepare a PRP sample containing platelets in an amount of 300,000/[…] for an adenosine diphosphate (ADP)-induced aggregation test and a PRP sample containing platelets in an amount of 450,000/[…] for a collagen-induced aggregation test.
(§3) 0.01 ml of a solution of a test compound having a predetermined concentration (as shown in the Tables below) was then added to 0.6 ml of the PRP sample obtained above and the mixture was incubated at a temperature of 37° C for 1 minute. Then 0.07 ml of an ADP or collagen solution was added to the mixture. The mixture was then subjected to a transmittance determination and changes in the transmittance of the mixture were recorded using aggregometer at a stirrer rotation rate of 1100 rpm. In this test, Auren Beronal buffer (pH 7.35) was used for the preparation of solutions of ADP, collagen and the test compounds. ADP was adjusted to a concentration of 7.5 × 10^-5 M, and the collagen solution was prepared by triturating 100 mg of collagen with 5 ml of the above buffer and the supernatant obtained was used as a collagen inducer. Adenosine and acetylsalicyclic acid were used as controls for the ADP-induced aggregation test and the collagen-induced aggregation test, respectively. The aggregation inhibitory activity was determined in terms of the percent inhibition (%) with respect to the aggregation ratio of controls. The aggregation ratio can be calculated by the following equation: [formula] Wherein: "a" is the optical density of the PRP,
(§4) "b" is the optical density of the PRP having incorporated therein a test compound and an aggregation inducer, and
(§5) "c" is the optical density of the PPP.

[4] = test system: ADP-induced aggregation in rabbit platelet; assay: Inhibition effect on ADP-induced aggregation in rabbit platelet; assay type: cell-based; conditions: rabbit platelet (PRP); for inhibition at 100 µM / inhibition at 10 µM / inhibition at 1 µM / inhibition at 0.01 µM / inhibition at 0.1 µM: Oryctolagus cuniculus, Platelet; for inhibition at 0.01 µM: 10^-8 M test compound solution
Description: as §1, §2, §3, §4, §5

[5] = Toxicity of benzcycloamide derivatives in mouse (LD50); conditions: in vivo
From the text: All the benzcycloamide derivatives represented by the aforesaid general formulas (I) are novel compounds having excellent platelet aggregation-inhibiting effects and are useful as preventives for thrombosis. […] Compounds tested: [drawing 17]

SMILES	inhibition at 100 µM [3]	inhibition at 10 µM ([3]; 10^-5 M test compound solution)	inhibition at 1 µM ([3]; 10^-6 M test compound solution)	inhibition at 0.01 µM [3]	inhibition at 100 µM ([4]; 10^-4 M test compound solution)	inhibition at 10 µM ([4]; 10^-5 M test compound solution)	inhibition at 1 µM ([4]; 10^-6 M test compound solution)	further results
CC(C)(C)NCC(O)COc1cccc2c1CCC(=O)N2 (stereo not drawn) [5-(2'-hydroxy-3-tert-butylamino)-propoxy-3,4-dihydrocarbostyril]	–	–	–	–	–	–	–	inhibition of the aggregation of blood platelets [1]: at low concentrations could specifically inhibit the aggregation of blood platelets; preventing and treating thrombosis [2]: very effective for preventing and treating thrombosis
CCOC(=O)C(C)Oc1ccc2c(c1)CCC(=O)N2 (stereo not drawn) [A]	71%	20%	2%	0%	57%	25%	5%	–
CCOC(=O)C(C)Oc1ccc2[nH]c(=O)ccc2c1 (stereo not drawn) [B]	67%	12%	-6%	0%	86%	54%	-6%	inhibition at 0.01 µM [4]: 14%
CCOC(=O)C(C)Oc1ccc2c(c1)CCC(=O)N2C (stereo not drawn) [C]	36%	–	0%	9%	36%	–	0%	inhibition at 0.01 µM [4]: 9%
CCOC(=O)C(C)Oc1cccc2c1NC(=O)CC2 (stereo not drawn) [Compound M]	5%	–	2%	7%	3%	–	11%	inhibition at 0.01 µM [4]: 11%
CCOC(=O)C(C)Oc1ccc2c(c1)NC(=O)CC2 (stereo not drawn) [D]	2%	–	8%	3%	-18%	–	14%	inhibition at 0.01 µM [4]: 14%
CCOC(=O)CCCOc1ccc2c(c1)CCC(=O)N2 [E]	92%	–	–	–	100%	97%	–	LD50 ([5]; Female mouse): > 1000 mg/kg; LD50 ([5]; Male mouse): > 1000 mg/kg
CCCCCOC(=O)C(C)Oc1ccc2c(c1)CCC(=O)N2 (stereo not drawn) [F]	88%	8%	0%	–	100%	79%	20%	–
CC(C)OC(=O)C(C)Oc1ccc2[nH]c(=O)ccc2c1 (stereo not drawn) [G]	55%	25%	3%	–	74%	38%	7%	–
CCOC(=O)CCCOc1cccc2c1CCC(=O)N2 [H]	90%	8%	5%	–	65%	18%	2%	–
CCCCCOC(=O)CCCOc1ccc2c(c1)CCC(=O)N2 [I]	48%	22%	6%	–	82%	58%	0%	inhibition at 0.1 µM ([4]; 10^-7 M test compound solution): 8%
CCOC(=O)CCCOc1ccc2c(c1)CCC(=O)N2 [J]	–	–	–	–	–	–	–	Inhibition effect on collagen-induced aggregation ([3]; 10^-5 M test compound solution): 86%; Inhibition effect on collagen-induced aggregation ([3]; 10^-6 M test compound solution): 18%; Inhibition effect on ADP-induced aggregation ([4]; 10^-4 M test compound solution): 100%; Inhibition effect on ADP-induced aggregation ([4]; 10^-5 M test compound solution): 90%; Inhibition effect on ADP-induced aggregation ([4]; 10^-6 M test compound solution): 25%; Inhibition effect on ADP-induced aggregation ([4]; 10^-7 M test compound solution): -4%
CCOC(=O)CCCCCCOc1ccc2c(c1)CCC(=O)N2 [K]	31%	13%	6%	–	37%	15%	10%	LD50 ([5]; Female mouse): 500 to 1000 mg/kg; LD50 ([5]; Male mouse): 750 to 1000 mg/kg; inhibition at 0.1 µM ([4]; 10^-7 M test compound solution): 7%
O=C(O)CCCCCCOc1ccc2c(c1)CCC(=O)N2 [L]	15%	14%	2%	–	13%	8%	7%	inhibition at 0.1 µM ([4]; 10^-7 M test compound solution): -10%
